We go through 16 compounds from ChEMBL document CHEMBL3112510, “Optimization, pharmacophore modeling and 3D-QSAR studies of sipholanes as breast cancer migration and proliferation inhibitors” (Eur J Med Chem, 2014).

In assay [1] the test system is MDA-MB-231. Kind of assay: Antiproliferative activity against human MDA-MB-231 cells after 72 hrs by MTT assay. The note with it: MDA-MB-231, 72 h. For orientation: Formazan colour is commonly taken as a measure of viable cells.
A further assay relates to MCF7. Kind of assay: cells. The settings on record: Homo sapiens, MCF7, 72 h.
Assay [2] deals with MDA-MB-231. Briefly: Antimigratory activity in human MDA-MB-231 cells after 24 hrs by wound healing assay. The settings on record: MDA-MB-231, 24 h.

With `C=C(C)C(CC[C@@]1(C)C(CC[C@H]2[C@]3(C)CC[C@H](O)C(C)(C)O[C@H]3CC[C@@]2(C)O)=C(C)CC[C@H]1O)OO` (stereo partly drawn) [SIPHONELLINOL E], the IC50 is greater than 50 µM in the assay with MDA-MB-231 [1], 31.2 µM in the assay with MCF7, 39 µM in the assay on MDA-MB-231 [2] and 39 µM in the assay on MDA-MB-231 [2] (read-out: pIC50 (converted)).

As to `CC(=O)O[C@H]1CC[C@]2(C)[C@H](CC[C@@](C)(O)[C@H]2CC[C@@H]2C(C)=CC[C@H]3[C@H](CC[C@]3(C)O)C2(C)C)OC1(C)C`, the figures for the IC50 in the assay with MDA-MB-231 [1], with MCF7 and in the assay with MDA-MB-231 [2] were 38 µM, 47.9 µM and 16.8 µM, respectively.

Consider `CC1=CC[C@H]2[C@@H]([C@@H]1CC[C@H]1[C@]3(C)CC[C@H](O)C(C)(C)O[C@H]3CC[C@@]1(C)O)C(C)(C)CC[C@]2(C)O`, for which the IC50 with MDA-MB-231 [1] was greater than 50 µM; in the assay on MCF7, greater than 50 µM; in the assay on MDA-MB-231 [2], 42 µM; with MDA-MB-231 [2] (read-out: pIC50 (converted)) it was 42 µM.

Consider `CC1=CC[C@H]2[C@H](CC[C@]2(C)O)C(C)(C)[C@@H]1CC[C@H]1[C@]2(C)CC[C@H](OC(=O)c3ccc(C)cc3)C(C)(C)O[C@H]2CC[C@@]1(C)O`, for which the IC50 in the assay on MDA-MB-231 [1] is 33.4 µM; with MCF7, greater than 50 µM; with MDA-MB-231 [2] it was 11.8 µM; in the assay on MDA-MB-231 [2] (read-out: pIC50 (converted)), 11.8 µM.

For `CC1(C)O[C@H]2CC[C@@](C)(O)[C@@H](CC[C@H]3C(C)(C)[C@@]4(O)CC[C@](C)(O)[C@H]4C[C@H]4O[C@]43C)[C@]2(C)CC[C@@H]1O`, the IC50 with MDA-MB-231 [1] is greater than 50 µM; in the assay on MCF7, greater than 50 µM; in the assay on MDA-MB-231 [2] it was greater than 50 µM; with MDA-MB-231 [2] (read-out: pIC50 (converted)), 36.2 µM.

Turning to `CC1=C(CC[C@H]2[C@]3(C)CC[C@H](O)C(C)(C)O[C@H]3CC[C@@]2(C)O)[C@@H]2[C@H](CC1=O)[C@@](C)(O)CCC2(C)C`, the IC50 in the assay with MDA-MB-231 [1] was greater than 50 µM; in the assay on MCF7, greater than 50 µM; in the assay on MDA-MB-231 [2], greater than 50 µM; in the assay with MDA-MB-231 [2] (read-out: pIC50 (converted)), 84.9 µM.

Regarding `CC1=CC[C@H]2[C@@H]1CC=C(C)[C@@H](CCC1=C(C)CC[C@@H]3OC(C)(C)[C@@H](O)CC[C@@]13C)C2(C)C`, the IC50 is greater than 50 µM with MDA-MB-231 [1], greater than 50 µM in the assay with MCF7, 46.7 µM with MDA-MB-231 [2] and 46.7 µM in the assay with MDA-MB-231 [2] (read-out: pIC50 (converted)).

For the compound `CC(=O)O[C@H]1CC[C@]2(C)[C@H](CC[C@@](C)(O)[C@H]2CC[C@@H]2C(C)=CC[C@H]3[C@H](CC[C@]3(C)OC(C)=O)C2(C)C)OC1(C)C`, the IC50 is 26.2 µM with MDA-MB-231 [1], 39.2 µM in the assay on MCF7, 20.3 µM in the assay on MDA-MB-231 [2] and 20.3 µM in the assay on MDA-MB-231 [2] (read-out: pIC50 (converted)).

For `CC1=CC[C@H]2[C@@H]1CC=C(C)[C@@H](CC[C@H]1[C@]3(C)CC[C@H](OCc4ccccc4)C(C)(C)O[C@H]3CC[C@@]1(C)O)C2(C)C`, the IC50 is 35.7 µM in the assay on MDA-MB-231 [1], greater than 50 µM in the assay with MCF7, 13.4 µM in the assay with MDA-MB-231 [2] and 13.4 µM with MDA-MB-231 [2] (read-out: pIC50 (converted)).

Take `CC1=CC[C@H]2[C@H](CC[C@]2(C)O)C(C)(C)[C@@H]1CC[C@@H]1[C@](C)(O)[C@H](O)C[C@@H]2OC(C)(C)[C@@H](O)CC[C@]21C`: the IC50 with MDA-MB-231 [1] is greater than 50 µM; in the assay on MCF7, greater than 50 µM; in the assay with MDA-MB-231 [2], greater than 50 µM; in the assay on MDA-MB-231 [2] (read-out: pIC50 (converted)), 22.4 µM.

With `CC1=CC[C@H]2[C@H](CC[C@]2(C)O)C(C)(C)[C@@H]1CC[C@H]1[C@]2(C)CC/C(=N/OC(=O)c3ccccc3)C(C)(C)O[C@H]2CC[C@@]1(C)O`, the IC50 was 27.4 µM with MDA-MB-231 [1], 25.6 µM in the assay on MCF7, 28.5 µM in the assay on MDA-MB-231 [2] and 28.5 µM in the assay on MDA-MB-231 [2] (read-out: pIC50 (converted)).

For the compound `CC1(C)O[C@H]2CC[C@@](C)(O)[C@@H](CC[C@@H]3C(CO)=CC[C@H]4[C@H](CC[C@]4(C)O)C3(C)C)[C@]2(C)CCC1=O`, the IC50 was greater than 50 µM in the assay on MDA-MB-231 [1], greater than 50 µM with MCF7, greater than 50 µM in the assay with MDA-MB-231 [2] and 77.8 µM in the assay on MDA-MB-231 [2] (read-out: pIC50 (converted)).

As for `CC1=CCC2C(CC[C@@]2(C)O)C(C)(C)C1CC[C@@H]1[C@@]2(C)CC[C@@H](O)C(C)(C)O[C@@H]2CC[C@]1(C)O` (stereo partly drawn) [SIPHOLENOL A], the IC50 in the assay with MDA-MB-231 [1] is greater than 50 µM; with MCF7 it was 44.5 µM; with MDA-MB-231 [2], 37.5 µM; with MDA-MB-231 [2] (read-out: pIC50 (converted)), 37.5 µM.

`CC1(C)O[C@H]2CC[C@@](C)(O)[C@@H](CC[C@H]3C(C)(C)[C@@]4(O)CC[C@](C)(O)[C@H]4C[C@H]4O[C@]43C)[C@]2(C)CCC1=O`: the IC50 is greater than 50 µM with MDA-MB-231 [1], greater than 50 µM with MCF7, 33 µM with MDA-MB-231 [2] and 33 µM with MDA-MB-231 [2] (read-out: pIC50 (converted)).

`C[C@@H]1CC[C@H]2[C@@H](/C1=C/C[C@H]1[C@]3(C)CCC(=O)C(C)(C)O[C@H]3CC[C@@]1(C)O)C(C)(C)CC[C@]2(C)O`: the IC50 in the assay on MDA-MB-231 [1] is greater than 50 µM; in the assay on MCF7, greater than 50 µM; in the assay on MDA-MB-231 [2] it was 28 µM; in the assay with MDA-MB-231 [2] (read-out: pIC50 (converted)), 28 µM.

For the compound `CC1=CC[C@H]2[C@H](CC[C@]2(C)O)C(C)(C)[C@@H]1CC[C@H]1[C@]2(C)CC[C@H](OC(=O)NCc3ccccc3)C(C)(C)O[C@H]2CC[C@@]1(C)O`, the IC50 is 40.3 µM in the assay with MDA-MB-231 [1], 24.5 µM in the assay with MCF7, 13.9 µM in the assay on MDA-MB-231 [2] and 13.9 µM in the assay with MDA-MB-231 [2] (read-out: pIC50 (converted)).
